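Tested at 5 concentrations; 48 h exposure; 96-well plates; endpoints linearly interpolated, else capped at highest concentration. GI50 is the concentration that inhibits growth by half. TGI denotes the concentration required for complete inhibition of growth.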
Legend:
Assay in all cases: growth of human tumour cells (NCI), 48 h
[1] = tested on: UACC-257 melanoma
[2] = tested on: M14 melanoma
[3] = tested on: NCI-H460 lung
[4] = tested on: HT29 colon
[5] = tested on: SF-539 CNS
[6] = tested on: TK-10 renal
[7] = tested on: SW-620 colon
[8] = tested on: SK-MEL-5 melanoma
[9] = tested on: SK-OV-3 ovarian
[10] = tested on: HOP-92 NSCLC

Structure (SMILES)	TGI [1]	TGI [2]	TGI [3]	TGI [4]	TGI [5]	TGI [6]	TGI [7]	TGI [8]	TGI [9]	TGI [10]	GI50 [1]	GI50 [2]	GI50 [3]	GI50 [4]	GI50 [5]	GI50 [6]	GI50 [7]	GI50 [8]	GI50 [9]	GI50 [10]
COC(=O)C1=C(C(=O)OC)C2C=CC1C1C(Cl)=C(Cl)C21 (configuration not stated)	> 100 µM	> 100 µM	> 100 µM	> 100 µM	> 100 µM	> 100 µM	> 100 µM	> 100 µM	> 100 µM	> 100 µM										
COc1ccc2[nH]c3c(C)c4c(c(C)c3c2c1)CN(C)CC4	32.7 µM	30.5 µM	24.8 µM	20.2 µM	29.8 µM	42.9 µM	15.5 µM	32 µM	30 µM	32.2 µM										
CCc1c(Oc2ccc(C(C)=O)cc2)c2ccccc2[nH]c1=O	55.1 µM	65.9 µM	65.7 µM	> 100 µM	38.6 µM	28.6 µM	67.4 µM	27.5 µM	74.5 µM	11.7 µM	14.5 µM	18.5 µM	18.7 µM	26.9 µM	15.7 µM	7.03 µM	22.2 µM	13 µM	21 µM	1.67 µM
N#Cc1ccc(C#Cc2ccccc2C#CCCCCO)cc1	31.4 µM	31.5 µM	49 µM	> 100 µM	32 µM	33.5 µM	35 µM	31.9 µM	33.5 µM	34.6 µM	17.3 µM	17.3 µM	19.7 µM	46 µM	17.5 µM	16.5 µM	17.4 µM	17.5 µM	18.2 µM	17.7 µM
CCCCCCCCCC[C@@H](O)[C@@H]1CC[C@H]([C@H]2CC[C@@H]([C@@H](O)CCCCCCCCCC[C@H]3CC(CC(C)=O)C(=O)O3)O2)O1 (some centres not stated)	26.7 µM	35.3 µM	> 100 µM	34.6 µM	22.7 µM	32.8 µM	38 µM	10.7 µM	34.1 µM	33.4 µM										
COc1ccc(C2=NN(C(=O)c3cc(OC)c(OC)c(OC)c3)C(c3ccc(C#N)cc3)C2)cc1OC (configuration not stated)	> 53.2 µM	10.4 µM	> 100 µM	> 32.1 µM		> 45 µM	> 100 µM	6.67 µM	8.32 µM	0.792 µM	6.4 µM	1.8 µM	2.01 µM	2.42 µM	0.882 µM	3.65 µM	1.26 µM	0.483 µM	0.872 µM	0.113 µM
CCOc1ccc2c(c1)[n+]([O-])c(S(=O)(=O)c1ccc(C)cc1)c(N)[n+]2[O-]	> 100 µM	> 100 µM	> 100 µM	> 100 µM	> 100 µM	> 100 µM	> 100 µM	> 100 µM	> 100 µM	> 100 µM										
COc1cc2c3c(n(C)c(=O)c2cc1OC)-c1cc2c(cc1/C3=C\CCCN1C(=O)c3ccccc3C1=O)OCO2	> 40 µM	> 40 µM	> 40 µM	> 40 µM	> 40 µM	> 40 µM	> 40 µM	> 40 µM	> 40 µM	13.4 µM	> 40 µM	> 40 µM	4.76 µM	> 40 µM	8.99 µM	> 40 µM	13.5 µM	21.7 µM	> 40 µM	2.12 µM
Cc1ccc(C)c(NC(=O)CC/C(=N\NC(=O)C(=O)NN)C(C)C(=O)c2ccc(O)cc2)c1 (configuration not stated)	> 100 µM	> 100 µM	> 100 µM	> 100 µM	> 100 µM	> 100 µM	> 100 µM	> 100 µM	> 100 µM	> 100 µM										
CCOC(=O)CCc1cc(=O)oc2cc(O)cc(O)c12	> 100 µM	> 100 µM	> 100 µM	> 100 µM	> 100 µM	> 100 µM	> 100 µM	> 100 µM	> 100 µM	> 100 µM										
COC(=O)CC(C(C(=O)OC)C(=O)OC)N1C(=O)OCC1c1ccccc1 (configuration not stated)	> 100 µM	> 100 µM	> 100 µM	> 100 µM	> 100 µM	> 100 µM	> 100 µM	> 100 µM	> 100 µM	> 100 µM										
O=C(Nc1ccc(N2CCNCC2)cc1)c1[nH]ncc1Nc1cc(Oc2ccccc2)ncn1	8.69 µM	3.19 µM	2.3 µM	4.53 µM	3.35 µM	4.67 µM	1.94 µM	3 µM	4.84 µM	5.32 µM	2.86 µM	1.55 µM	0.635 µM	1.78 µM	1.69 µM	2.07 µM	0.514 µM	1.43 µM	1.99 µM	2.35 µM
CC1=C(C(=O)Nc2ccc3[nH]ncc3c2)C(c2ccc3ccccc3c2)CC(=O)N1 (configuration not stated)	> 25 µM	> 25 µM	> 25 µM	> 25 µM	> 25 µM	> 25 µM	> 25 µM	> 25 µM	> 25 µM	10.9 µM	> 25 µM	> 25 µM	> 25 µM	20 µM	9.18 µM	8.73 µM	9.97 µM	> 19.3 µM	> 25 µM	0.0408 µM
CC1=C(C(=O)Nc2ccc([N+](=O)[O-])cc2)C(c2ccc(N(C)C)cc2)C(C(=O)Nc2ccc([N+](=O)[O-])cc2)=C(C)N1	35.6 µM	40.9 µM	45.3 µM	46.9 µM	50.5 µM	92.2 µM	69.8 µM	32.1 µM	80 µM	47.7 µM										
CC(=O)Nc1ccccc1Sc1ccccc1	> 100 µM	> 100 µM	> 100 µM	> 100 µM	> 100 µM	> 100 µM	> 100 µM	> 100 µM	> 100 µM	> 100 µM										
N#C/C(=C/c1ccsc1)C(=O)c1ccccc1	> 100 µM	> 100 µM	> 100 µM	> 100 µM	> 100 µM	> 100 µM	> 100 µM	> 100 µM	> 100 µM	> 100 µM										

Structure (SMILES)	TGI [1]	TGI [2]	TGI [3]	TGI [4]	TGI [5]	TGI [6]	TGI [7]	TGI [8]	TGI [9]	TGI [10]	GI50 [1]	GI50 [2]	GI50 [3]	GI50 [4]	GI50 [5]	GI50 [6]	GI50 [7]	GI50 [8]	GI50 [9]	GI50 [10]
Cc1ccc(-c2c3c([nH]c(=O)c2C#N)-c2cc(F)ccc2OC3)cc1	> 100 µM	> 100 µM	> 100 µM	> 100 µM	> 100 µM	80.9 µM	> 100 µM	> 100 µM	> 100 µM	> 100 µM	> 100 µM	29.9 µM	53.4 µM	> 100 µM	> 100 µM	29.4 µM	> 100 µM	41.8 µM	97.6 µM	> 100 µM
COc1ccccc1C1C(C(=O)Nc2ccccc2)=C(C)NC(C)=C1C(=O)Nc1ccccc1	> 100 µM	> 100 µM	> 100 µM	> 100 µM	> 100 µM	> 100 µM	> 100 µM	> 100 µM	> 100 µM	> 100 µM										
C[C@]12CC[C@H](O)CC1=CC[C@@H]1[C@@H]2CC[C@]2(C)C(c3cccnc3)=CC[C@@H]12	> 100 µM	> 100 µM	> 100 µM	> 100 µM	> 100 µM	> 100 µM	> 100 µM	> 100 µM	> 100 µM	> 55.9 µM	> 100 µM	> 100 µM	> 100 µM	56.2 µM	8.31 µM	> 100 µM	> 100 µM	46.1 µM	> 33.8 µM	8.7 µM
OCCC1(O)CCC(O)CC1 (configuration not stated)	> 100 µM	> 100 µM	> 100 µM	> 100 µM	> 100 µM	> 100 µM	> 100 µM	> 100 µM	> 100 µM	> 100 µM										
Nc1ccn(C2O[C@H](CO)[C@@H](O)[C@@H]2O)c(=O)n1 (some centres not stated)	> 100 µM	> 100 µM	> 100 µM	> 100 µM	> 100 µM	> 100 µM	> 100 µM	> 100 µM	> 100 µM	> 100 µM		22.3 µM	23 µM							33.8 µM
Cc1cc2c(cc1C)[n+](=O)c(C(=O)CC(=O)C(=O)Nc1c(C(C)C)cccc1C(C)C)c(C)n2[O-]	> 100 µM	> 100 µM	> 100 µM	> 100 µM	> 100 µM	> 100 µM	> 100 µM	> 100 µM	> 100 µM	> 100 µM										
COc1ccc(CNc2cc(OC)c(OC)c(OC)c2)cc1	> 100 µM	> 100 µM	> 30 µM	> 100 µM	35.1 µM	> 100 µM	> 100 µM	14.6 µM	> 90.5 µM	> 100 µM										
O=NN(Cc1ccc(Cl)cc1)C(C(=O)O)c1ccccc1 (configuration not stated)	> 100 µM	> 100 µM	> 100 µM	> 100 µM	> 100 µM	> 100 µM	> 100 µM	> 100 µM	> 100 µM	> 100 µM										
CC1=C(CCCNS(C)(=O)=O)C2=C(C)C3(CC3)[C@@](C)(O)C(=O)C2=C1	4.41 µM	2.75 µM	0.812 µM	> 100 µM	3.26 µM	8.52 µM	> 100 µM	1.98 µM	1.11 µM	1.41 µM	1.78 µM	0.807 µM	0.266 µM	1.87 µM	0.969 µM	2.61 µM	55.5 µM	0.492 µM	0.304 µM	0.303 µM
O=c1oc2ccc(F)cc2c(=O)n1-c1ccc(F)cc1F	7.15 µM	8.04 µM	62.4 µM	49.8 µM	13.8 µM	36.9 µM	80.6 µM	3.69 µM	4.6 µM	4.68 µM	2.29 µM	2.47 µM	3.42 µM	3.91 µM	3.31 µM	5.07 µM	3.33 µM	1.76 µM	1.72 µM	1.6 µM
CNC(=O)OCc1c(COC(=O)NC)c(-c2ccc(Cl)c(Cl)c2)n2c1SCC2	31.7 µM	37.9 µM	19.9 µM	37.5 µM	26.9 µM	19.1 µM	26.3 µM	25.1 µM	28.1 µM	17.6 µM										
CC1OC(n2cc(F)c(=O)[nH]c2=O)CCC1O (configuration not stated)	> 100 µM	> 100 µM	> 100 µM	> 100 µM	84.4 µM	> 100 µM	> 100 µM	> 56.2 µM	> 100 µM	> 100 µM										
CN(C)CCNc1cc(-c2ccccc2)nc2ccccc12	26.7 µM	24.8 µM	12.8 µM	16.7 µM	22.7 µM	38.8 µM	21.5 µM	22.4 µM	39 µM	21.3 µM	11.5 µM	10.3 µM	3.5 µM	4.01 µM	8.22 µM	6.94 µM	3.94 µM	10.1 µM	9.24 µM	3.21 µM
Cc1cc(N(CCOS(C)(=O)=O)CCOS(C)(=O)=O)ccc1C=Nc1ccc(-c2nc(Cc3ccccc3)sc2C)cc1	28.4 µM	20.7 µM	5.03 µM	21.4 µM	14.8 µM	33.9 µM	45.4 µM	26.7 µM	4.56 µM	25.4 µM										
CC1CCC2(C(=O)O)CCC3(C)C(=CCC4C5(C)CC(O)C(O)C(C)(CO)C5C(O)CC43C)C2C1C (configuration not stated)	> 100 µM	> 100 µM	> 100 µM	> 100 µM	75.9 µM	> 100 µM	> 100 µM	87.2 µM	> 100 µM	46.3 µM										
O=C1/C(=C/c2ccc(Br)cc2)C=C(c2ccccc2)N1CCc1ccccc1	18.7 µM	71.8 µM	10.2 µM	> 100 µM	5.57 µM	6.06 µM	> 100 µM	20.8 µM	5 µM	2.63 µM	2.82 µM	3.53 µM	0.906 µM	4.73 µM	1.77 µM	1.82 µM	5.34 µM	3.89 µM	1.55 µM	0.32 µM

Reference: PubChem BioAssay (NCI)
